Experimental data taken from patent publication US20190262457A1, “NOVEL ALKYLATING AGENT” (CHIBA-PREFECTURE, priority 2016, published 2019).

Assays:
[1] = test system: PD-L1 gene; test: Experiment to silence PD-L1 gene (RT-PCR / real-time PCR), CCC07-01; assay type: cell-based, human; details: RKO cells, 10 nM, 24 hours
Experimental: RKO cells were cultured in a 6-well plate. On the next day, the cells were treated with 0, 1, 10, or 100 nM CCC07-01 for 24 hours. The cells were collected, and total RNA was extracted therefrom. The extraction employed RNeasy Plus Mini Kit (Qiagen N.V., CA). Next, cDNA was prepared by reverse transcription with the extracted RNA as a template according to Super Script VILO cDNA Synthesis kit (Invitrogen Corp., CA). RT-PCR was performed with the cDNA as a template under the following conditions: the conditions for PD-L1 involved denaturation at 95° C. and then 25 cycles each involving 95° C. for 30 seconds, 60° C. for 30 seconds, and 72° C. for 30 seconds, followed by elongation reaction at 72° C. for 5 minutes. For a control, RT-PCR of GAPDH was performed using the same cDNA as above. The conditions for GAPDH involved denaturation at 95° C. and then 22 cycles each involving 95° C. for 30 seconds, 55° C. for 30 seconds, and 72° C. for 30 seconds, followed by elongation reaction at 72° C. for 5 minutes.
Each RT-PCR product was electrophoresed on 2% agarose and then stained with ethidium bromide. qPCR was further performed. […] A relative expression level was quantified with GAPDH as a control.

[2] = test system: CTLA-4 gene; test: Experiment to silence CTLA-4 gene (semi-quantitative RT-PCR), CCC07-01; assay type: cell-based, human; details: A2058 cells, 10 nM, 24 hours
Experimental: A2058 or MIA PaCa-2 cells were cultured in a 6-well plate. On the next day, the cells were treated with 0, 1, or 10 nM CCC07-01 for 24 hours. The cells were collected, and total RNA was extracted therefrom. The extraction employed RNeasy Plus Mini Kit (Qiagen N.V., CA). Next, cDNA was prepared by reverse transcription with the extracted RNA as a template according to Super Script VILO cDNA Synthesis kit (Invitrogen Corp., CA). RT-PCR was performed with the cDNA as a template under the following conditions: the conditions involved denaturation at 95° C. for 2 minutes and then 33 cycles each involving 95° C. for 30 seconds, 60° C. for 30 seconds, and 72° C. for 30 seconds, followed by elongation reaction at 72° C. for 5 minutes. For a control, RT-PCR of GAPDH was performed using the same cDNA as above. The conditions for GAPDH involved denaturation at 95° C. for 2 minutes and then 22 cycles each involving 95° C. for 30 seconds, 55° C. for 30 seconds, and 72° C. for 30 seconds, followed by elongation reaction at 72° C. for 5 minutes. Each PCR product was electrophoresed on 2% agarose and then stained with ethidium bromide. The concentration of the band of the PCR product of CTLA-4 was calculated with the GAPDH band as a control using Image J. The concentrations of the PCR products for each concentration of PIP were compared for quantification.

[3] = log-P (octanol/water partition coefficient) by HPLC, indole/curcumin calibration curve; assay type: physicochemical; details: calculated from indole/curcumin calibration curve, listed as CCC07-001
Experimental: The polyamides were further analyzed for log-P (octanol/water partition coefficient) by HPLC. The retention times of 2 types of compounds (compound names) having a known log-P value and the polyamides were measured in the presence of a mixed solvent of 0.1% aqueous acetic acid solution and acetonitrile by HPLC using isocratic elution. […] The log-P values of the polyamides were calculated from the curve.

Structure (SMILES): CC(=O)Nc1cn(C)c(C(=O)Nc2cc(C(=O)Nc3cn(C)c(C(=O)Nc4cn(C)c(C(=O)NCCC(=O)Nc5cc(C(=O)Nc6cc(C(=O)NCCCC(=O)Nc7cc(C(=O)Nc8cn(C)c(C(=O)NCCC(=O)Nc9cc(C(=O)Nc%10cc(C(=O)Nc%11ccc%12[nH]c(C(=O)N%13CC(CCl)c%14c%13cc(O)c%13ccccc%14%13)cc%12c%11)n(C)c%10)n(C)c9)n8)n(C)c7)n(C)c6)n(C)c5)n4)n3)n(C)c2)n1 (stereo not drawn) [CCC07-01]
- expression of PD-L1 [1]: markedly decreased
- expression of CTLA-4 [2]: markedly decreased
- logPow [3]: 3.13
